Assay results: patent publication US20150305334A1, “USE OF SUBSTITUTED 1-(ARYL ETHYNYL)-, 1-(HETEROARYL ETHYNYL)-, 1-(HETEROCYCLYL ETHYNYL)- AND 1-(CYCLOALKENYL ETHYNYL)-CYCLOHEXANOLS AS ACTIVE AGENTS AGAINST ABIOTIC PLANT STRESS” (BAYER CROPSCIENCE AG, priority 2012, published 2015)

Experiments:
Format in all cases: in vivo
Brassica napus = experiment: Drought stress test on greenhouse crop plants, spray application, efficacy vs untreated stressed control (BRSNS); details: dosage 250 g/ha
Method: (§1) Seeds of monocotyledonous and dicotyledonous crop plants were laid out in sandy loam in wood-fiber pots, covered with soil or sand and cultivated in a greenhouse under good growth conditions. The test plants were treated at the early leaf stage (BBCH10-BBCH13). To assure uniform water supply before commencement of stress, the potted plants were supplied with water by dam irrigation prior to substance application. The compounds according to the invention, formulated in the form of wettable powders (WP), were sprayed onto the green parts of the plants as an aqueous suspension at an equivalent water application rate of 600 l/ha with addition of 0.2% wetting agent (e.g. agrotin). Substance application was followed immediately by stress treatment of the plants. For this purpose, the pots were transferred into plastic inserts in order to prevent them from subsequently drying out too quickly. […] After the recovery phase had ended, the intensities of damage were analyzed in visual comparison to untreated, unstressed controls of the same age. The intensity of damage was first recorded as a percentage (100%=plants have died, 0%=like control plants). […] EF: efficacy (%) DVus: damage value of the untreated, stressed control DVts: damage value of the plants treated with test compound In each trial, 3 pots per crop and dosage were treated and evaluated; the resulting efficacies are thus averages. […]

Zea mays = experiment: Drought stress test on greenhouse crop plants, spray application, efficacy vs untreated stressed control (ZEAMX); details: dosage 25 g/ha
Method: as §1

Triticum aestivum = experiment: Drought stress test on greenhouse crop plants, spray application, efficacy vs untreated stressed control (TRZAS); details: dosage 25 g/ha
Method: as §1

Row | Compound | EF (BRSNS) (Brassica napus) [%] | EF (ZEAMX) (Zea mays) [%] | EF (TRZAS) (Triticum aestivum) [%]
1 | CC1CCCC(C)(C)C1(O)C#Cc1ccccc1C(=O)O (centres unmarked) [I.1-107, 2-[(1-Hydroxy-2,2,6-trimethylcyclohexyl)ethynyl]benzoic acid] | >5 |  | 
2 | COC(=O)c1ccccc1C#CC1(O)C(C)CCCC1C (centres unmarked) [I.13-116, Methyl 2-[(1-hydroxy-2,6-dimethylcyclohexyl)ethynyl]benzoate] |  | >5 | 
3 | COC(=O)c1ccccc1C#CC1(O)C(C)CCCC1(C)C (centres unmarked) [I.1-116, Methyl 2-[(1-hydroxy-2,2,6-trimethylcyclohexyl)ethynyl]benzoate] | >5 | >5 | >5
